Reference: EP2253620B1, “SUBSTITUTED 3-CYANOQUINOLINES AS PROTEIN TYROSINE KINASES INHIBITORS” (Wyeth Holdings LLC, priority 1998, dated 2000)

Columns and labels:
Format in all cases: biochemical
[1] = target: T1, epidermal growth factor receptor kinase (Homo sapiens, UniProt P00533); experiment: Inhibition of Epidermal Growth Factor Receptor Kinase (EGF-R) using recombinant enzyme; details: averages of the individual determinations
T1 construct: containing the EGFR cDNA encoding amino acids 645 - 1186 preceded by Met-Ala-(His)6; made in house; host or cells: Sf9 insect cells, recombinant baculovirus vHcEGFR52
Description: Representative test compounds were evaluated for their ability to inhibit the phosphorylation of the tyrosine residue of a peptide substrate catalyzed by the enzyme epidermal growth factor receptor kinase. […] The enzyme used in this assay is the His-tagged cytoplasmic domain of EGFR. A recombinant baculovirus (vHcEGFR52) was constructed containing the EGFR cDNA encoding amino acids 645 - 1186 preceded by Met-Ala-(His)6. Sf9 cells in 100 mm plates were infected at an moi of 10 pfu/cell and cells were harvested 48 h post infection. A cytoplasmic extract was prepared using 1% Triton X-100 and applied to Ni-NTA column. After washing the column with 20 mM imidazole, HcEGFR was eluted with 250 mM imidazole (in 50 mM Na2HPO4, pH 8.0, 300 mM NaCl). Fractions collected were dialyzed against 10 mM HEPES, pH 7.0, 50 mM NaCl, 10% glycerol, 1ug/mL antipain and leupeptin and 0.1 mM Pefabloc SC. The protein was frozen in dry ice/methanol and stored -70°C.
Test compounds were made into 10 mg/mL stock solutions in 100% dimethylsulfoxide (DMSO). Prior to experiment, stock solutions were diluted to 500 uM with 100% DMSO and then serially diluted to the desired concentration with HEPES buffer (30 mM HEPES pH 7.4).
For the enzyme reaction, 10 µL of each inhibitor (at various concentrations) were added to each well of a 96-well plate. To this was added 3 µL of enzyme (1:10 dilution in 10mM HEPES, pH 7.4 for final conc. of 1:120). This was allowed to sit for 10 min on ice and was followed by the addition of 5 µl peptide (80 µM final conc.), 10 µl of 4X Buffer (Table A), 0.25 µL ^33P-ATP and 12 µL H2O. The reaction was allowed to run for 90 min at room temperature and was followed by spotting the entire volume on to precut P81 filter papers. The filter discs were washed 2X with 0.5% phosphoric acid and radioactivity was measured using a liquid scintillation counter.
The % inhibition of the test compound was determined for at least three different concentrations and the IC50 value was evaluated from the dose response curve. […] CPM(control) is in units of counts per minute and was a number expressing the amount of radiolabled ATP (g-^33P) incorporated into the RR-SRC peptide substrate by the enzyme after 90 minutes at room temperature in the absence of test compound as measured by liquid scintillation counting. The CPM values were corrected for the background counts produced by ATP in the absence of the enzymatic reaction. The IC50 values in TABLE 1 are averages of the individual determinations.

[2] = target: T2, Kinase insert Domain containing Receptor (KDR: the catalytic domain of the VEGF receptor) (Homo sapiens, UniProt P35968); experiment: Inhibition of Kinase insert Domain containing Receptor (KDR) tyrosine kinase activity
T2 construct: KDR: the catalytic domain of the VEGF receptor
Source text: Inhibition of Kinase insert Domain containing Receptor (KDR: the catalytic domain of the VEGF receptor)
In this standard pharmacological test procedure, KDR protein is mixed, in the presence or absence of a inhibitor compound, with a substrate peptide to be phosphorylated (a copolymer of glutamic acid and tyrosine, E:Y :: 4:1) and other cofactors such as Mg^++ and sodium vanadate (a protein tyrosine phosphatase inhibitor) in an appropriate buffer to maintain pH (7.2). ATP and a radioactive tracer (either P^32- or P^33- labeled ATP) is then add to initiate phosphorylation. After incubation, the radioactive phosphate associated with the acid-insoluble fraction of the assay mixture is then quantified as reflection of substrate phosphorylation. […] Multiple entries for a given compound indication it was tested multiple times.

[3] = target: Epithelial Cell Kinase (ECK) (Homo sapiens, UniProt P29317); experiment: Inhibition of Epithelial Cell Kinase (ECK) tyrosine kinase activity
Description: In this standard pharmacological test procedure, a biotinylated peptide substrate is first immobilized on neutravidin-coated microtiter plates. The test drug, the Epithelial Cell Kinase (ECK), Mg^++, sodium vanadate (a protein tyrosine phosphatase inhibitor), and an appropriate buffer to maintain pH (7.2) are then added to the immobilized substrate-containing microtiter wells. ATP is then added to initiate phosphorylation. After incubation, the assay plates are washed with a suitable buffer leaving behind phosphorylated peptide which is exposed to horse radish peroxidase (HRP)-conjugated anti-phosphotyrosine monoclonal antibody. The antibody-treated plates are washed again and the HRP activity in individual wells is quantified as a reflection of degree of substrate phosphorylation. […] Multiple entries for a given compound indication it was tested multiple times.

Mek and Erk = Mek and Erk (Homo sapiens, UniProt P28482+Q02750); experiment: Mitogen Activated Protein Kinase (MAPK) coupled assay (Mek-Erk); details: coupled MEK 1 / ERK2; separate entries = separate tests; read-out: Mek and Erk
Description: Mitogen Activated Protein Kinase (MAPK) Assay
To evaluate inhibitors of the MAP (mitogen activated protein) kinase a two component coupled standard pharmacological test procedure, which measures phosphorylation of a serine/threonine residue in an appropriate sequence in the substrate in the presence and absence of a putative inhibitor, was used. Recombinant human MEK 1 (MAPKK) was first used to activate recombinant human ERK2 (MAPK) and the activated MAPK (ERK) was incubated with substrate (MBP peptide or MYC peptide) in the presence of ATP, Mg^+2 and radiolabeled ^33P ATP. The phosphorylated peptide was captured on a P 81 phosphocellulose filter (paper filter or embedded in microtiter plate) washed and counted by scintillation methods.
The peptide substrates used in the assay are MBP, peptide substrate ([…]), or synthetic Myc substrate, ([…]•5 TFA. The recombinant enzymes used were prepared as GST fusion proteins of human ERK 2 and human MEK 1. Inhibitor samples were prepared as 10X stocks in 10% DMSO and an appropriate aliquot was used to deliver either 10 ug/ml for a single point screening dose or 100, 10, 1, and 0.1 uM final concentration for a dose response curve. Final DMSO concentrations were less than or equal to 1%.
The reaction was run as follows in 50 mM Tris kinase buffer, pH 7.4 in a reaction volume of 50 ul. The appropriate volume of kinase buffer and inhibitor sample was added to the tube. Appropriate dilution of enzyme was delivered to give 2-5 ug recombinant MAPK (Erk ) per tube. The inhibitor was incubated with MAPK (Erk) for 30 min at 0 deg. C. Recombinant Mek (MAPKK) ( 0.5-2.5 ug) or fully activated Mek (0.05-0.1 units) was added to activate the Erk and incubated for 30 min at 30° C. Then substrate and gamma ^33P ATP was were added to give a final concentration of 0.5- 1 mM MBPP or 250-500 uM Myc; 0.2-0.5 uCi gamma P 33 ATP/tube; 50 µM ATP final concentration. Samples were incubated at 30°C for 30 minutes and the reaction was stopped by adding 25 µl of ice cold 10 %TCA .After samples were chilled on ice for 30 min, 20 µl of sample was transferred onto P 81 phosphocellulose filter paper or appropriate MTP with embedded P 81 filter. Filter papers or MTP were washed 2 times with a large volume of 1% acetic acid, then 2 times with water. The filters or MTP were briefly air dried before addition of scintillant and samples were counted in the appropriate scintillation counter set up for reading ^33P isotope. Samples included a positive control (activated enzyme plus substrate); a no enzyme control; a no substrate control; samples with different concentrations of putative inhibitor; and samples with reference inhibitors (other active compounds or non-specific inhibitors such as staurosporine or K252 B).
The raw data was captured as cpm. Sample replicates were averaged and corrected for background count. Mean cpm data was tabulated by group and % inhibition by a test compound was calculated as (corrected cpm control- corrected. cpm sample/control) X 100 = % inhibition. […] The results obtained for representative compounds of this invention are listed in TABLE 2 where there may be separate entries for the same compound; this is an indication that the compound was evaluated more than one time.

T1 sequence (P00533 669-1210): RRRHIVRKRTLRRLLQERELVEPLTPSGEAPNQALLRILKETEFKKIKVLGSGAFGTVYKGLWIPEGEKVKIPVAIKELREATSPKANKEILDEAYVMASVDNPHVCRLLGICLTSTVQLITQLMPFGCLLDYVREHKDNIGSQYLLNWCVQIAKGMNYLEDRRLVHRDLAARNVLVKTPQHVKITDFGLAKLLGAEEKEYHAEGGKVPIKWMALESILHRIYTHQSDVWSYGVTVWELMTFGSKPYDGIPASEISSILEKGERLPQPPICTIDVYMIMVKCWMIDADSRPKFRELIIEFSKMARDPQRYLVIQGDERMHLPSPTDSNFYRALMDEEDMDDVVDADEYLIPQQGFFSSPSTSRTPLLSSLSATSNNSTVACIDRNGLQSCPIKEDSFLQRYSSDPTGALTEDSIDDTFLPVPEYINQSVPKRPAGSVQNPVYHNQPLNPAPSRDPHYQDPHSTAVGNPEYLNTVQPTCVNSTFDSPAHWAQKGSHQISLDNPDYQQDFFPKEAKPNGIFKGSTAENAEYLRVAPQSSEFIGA
Sequence of Epithelial Cell Kinase (ECK) (P29317 24-976, species assumed): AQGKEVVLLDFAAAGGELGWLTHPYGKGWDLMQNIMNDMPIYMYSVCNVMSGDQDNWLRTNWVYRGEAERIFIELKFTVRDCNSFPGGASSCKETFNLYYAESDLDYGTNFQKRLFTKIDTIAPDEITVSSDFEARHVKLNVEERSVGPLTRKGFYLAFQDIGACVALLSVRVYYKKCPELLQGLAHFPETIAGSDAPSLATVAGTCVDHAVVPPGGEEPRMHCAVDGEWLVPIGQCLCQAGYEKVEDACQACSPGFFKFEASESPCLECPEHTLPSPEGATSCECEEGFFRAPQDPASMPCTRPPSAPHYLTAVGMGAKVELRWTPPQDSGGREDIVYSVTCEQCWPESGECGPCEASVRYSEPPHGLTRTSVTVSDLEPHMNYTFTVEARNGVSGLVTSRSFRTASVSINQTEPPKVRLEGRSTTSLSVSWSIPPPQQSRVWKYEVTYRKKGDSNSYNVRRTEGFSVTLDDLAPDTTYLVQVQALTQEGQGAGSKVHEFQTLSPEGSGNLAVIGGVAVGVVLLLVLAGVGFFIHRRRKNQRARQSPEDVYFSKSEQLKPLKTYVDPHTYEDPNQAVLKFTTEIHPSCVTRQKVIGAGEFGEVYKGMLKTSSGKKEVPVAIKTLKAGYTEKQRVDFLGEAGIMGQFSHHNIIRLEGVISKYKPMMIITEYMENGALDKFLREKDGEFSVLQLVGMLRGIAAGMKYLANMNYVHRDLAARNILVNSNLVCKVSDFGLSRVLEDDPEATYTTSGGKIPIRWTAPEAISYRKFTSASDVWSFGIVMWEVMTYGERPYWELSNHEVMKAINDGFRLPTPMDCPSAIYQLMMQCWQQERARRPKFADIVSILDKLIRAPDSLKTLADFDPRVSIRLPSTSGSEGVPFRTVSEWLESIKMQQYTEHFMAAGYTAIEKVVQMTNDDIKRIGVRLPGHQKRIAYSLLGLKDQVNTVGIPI
Sequence of Mek and Erk (Q02750 whole entry): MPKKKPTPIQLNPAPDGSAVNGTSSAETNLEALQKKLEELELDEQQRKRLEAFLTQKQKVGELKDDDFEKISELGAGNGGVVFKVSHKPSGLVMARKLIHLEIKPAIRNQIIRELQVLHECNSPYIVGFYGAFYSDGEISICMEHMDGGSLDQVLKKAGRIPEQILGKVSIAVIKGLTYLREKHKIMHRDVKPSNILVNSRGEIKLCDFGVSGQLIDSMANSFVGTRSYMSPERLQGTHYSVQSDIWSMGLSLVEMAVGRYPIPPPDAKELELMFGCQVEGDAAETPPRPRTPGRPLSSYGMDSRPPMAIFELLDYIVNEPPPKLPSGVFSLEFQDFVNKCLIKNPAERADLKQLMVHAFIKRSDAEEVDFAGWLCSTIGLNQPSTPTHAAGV
Sequence of Mek and Erk (P28482 2-360): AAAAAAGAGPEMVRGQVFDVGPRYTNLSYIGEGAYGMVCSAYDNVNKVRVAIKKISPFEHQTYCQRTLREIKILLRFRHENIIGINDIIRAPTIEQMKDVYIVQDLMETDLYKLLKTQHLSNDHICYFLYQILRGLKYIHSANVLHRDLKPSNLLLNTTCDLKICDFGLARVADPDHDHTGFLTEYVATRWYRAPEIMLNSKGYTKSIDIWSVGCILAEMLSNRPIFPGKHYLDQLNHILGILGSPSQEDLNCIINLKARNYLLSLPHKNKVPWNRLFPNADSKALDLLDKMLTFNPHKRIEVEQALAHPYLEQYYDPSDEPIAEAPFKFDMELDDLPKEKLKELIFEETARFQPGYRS
T2 sequence (P35968 834-1162 limits assumed): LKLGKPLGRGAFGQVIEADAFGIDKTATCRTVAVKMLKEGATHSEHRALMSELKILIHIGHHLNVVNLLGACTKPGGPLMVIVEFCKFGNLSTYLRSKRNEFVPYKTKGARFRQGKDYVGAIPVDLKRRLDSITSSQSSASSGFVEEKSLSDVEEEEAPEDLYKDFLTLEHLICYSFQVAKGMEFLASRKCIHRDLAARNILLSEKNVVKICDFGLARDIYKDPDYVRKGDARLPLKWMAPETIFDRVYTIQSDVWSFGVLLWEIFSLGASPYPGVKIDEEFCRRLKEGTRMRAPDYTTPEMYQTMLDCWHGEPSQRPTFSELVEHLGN

SMILES: N#Cc1cnc2ccc(NC(=O)C#CCN3CCC4(CC3)OCCO4)cc2c1Nc1cccc(Br)c1 [Example 82, 4-(1,4-Dioxa-8-azaspiro[4,5]dec-8-yl)but-2-ynoic Acid [4-(3-Bromophenylamino)-3-cyanoquinolin-6-yl] Amide]
- IC50 [1]: 50 nM
- IC50 [2]: > 1830 nM
- IC50 [3]: > 1830 nM
- IC50 (Mek and Erk): 30000 nM
